Counter-ions that a name gives are not always drawn.
Columns and labels:
[1] = test system: HT-29 cell derived from human large intestine cancer; assay: Tumor growth in nude mouse inoculated subcutaneously with HT-29 cells; type: in vivo
Experimental: A HT-29 cell was inoculated subcutaneously into a mouse, and the transition of the size of the tumor lump was measured with time from the day on which the tumor has grown to a certain size, when each of COM-JP and 5-FU was used alone or in combination.

[2] = test system: HT-29 cell derived from human large intestine cancer; assay: Tumor growth in nude mouse SOI model (HT-29 grafted onto wall of large intestine); type: in vivo
Source text: […] was expressed in a HT-29 cell derived from human large intestine cancer, and which was grafted onto the wall of large intestine of a mouse to produce a metamouse. According to this, the quantity of the size of the tumor could be determined with time with emission intensity. In FIG. 16, the size of tumor in each treatment group was shown with a bar graph. Group 1 is a control group, Groups 2 to 4 are a group in which COM-JP was intraperitoneally administered alone at 3.1, 12.5, and 50 mg/kg weight/day every day for 4 weeks, Group 5 is a group in which CDDP was intraperitoneally administered alone at 2.5 mg/kg/day three times on day 0, day 6, and day 13, Groups 6 to 8 are a group in which Groups 2 to 4 and Group 5 were combined to be administered in combination, and Group 9 is a group in which COM-JP was orally administered at 300 mg/kg/day every day for 4 weeks.

mTORC1 / Akt activation = assay: Western blot of S6RP, 4EBP1 and Akt phosphorylation, KO99L cells; type: cell-based, murine; conditions: 2.0-24 h; COMPOUND-JP 10.0 μM; MK-2206 5.0 μM; KU0063794 5.0 μM; rapamycin 10.0 nM; L-Asp, Erw 2.5 units/ml; velcade at 24 h
CHOP = assay: Western blot of CHOP protein levels, KO99L cells; type: cell-based, murine
Experimental: (§1) Cell extracts were prepared using a cell lysis buffer (50 mM HEPES, pH 7.4, 150 mM NaCl, 20 mM EDTA, 100 mM NaF, 10 mM Na3VO4, 0.5% nonyl phenoxypolyethoxylethanol (NP40) supplemented with a cocktail of protease inhibitors. After SDS-PAGE separation and transfer to nitrocellulose immunoblotting was performed using the following antibodies against: Akt (Cell Signaling Technologies, #9272), CHOP (#2895), cleaved caspase 3 (#9664), c-Myc (#9402), eIF2a (#9721), 4EBP1 (#9644), LC3A/B (#12741), PARP (#9542), pJnk (T183/Y185) (#9251), pSer235-236-S6RP (#4856), pSer473-Akt (#9271), pSer65-4EBP1 (#9451) and S6RP (#2217); Bax (Sigma-Aldrich, B8429); PUMA (Abcam, ab54288); Bak (Millipore, 06536); ATF4 (Santa Cruz Biotechnologies, sc200), GADD34 (sc8327), Hsp60 (sc-1722), Hsp90 (sc-13119) and XBP1 (sc-7160); ATF6 (Imgenex, IMG-273).

c-myc = assay: Western blot of c-myc levels, KO99L cells; type: cell-based, murine; conditions: COMPOUND-JP 10.0 μM 2.0-24 h; Velcade 8 nM 24 h; KU0063794 10.0 μM; MK-2206 10.0 μM; rapamycin 100 nM
Experimental: as §1

KO99L cells [3] = assay: Combination studies with COMPOUND-JP, WST-1 viability, Chou-Talalay combination index; type: cell-based, murine; conditions: 48 h, suboptimal concentrations, in combination with COMPOUND-JP
Experimental: Combinations were analyzed by ANOVA followed by Tukey's Multiple comparison test to determine significance between experimental groups. The synergism between drugs was analyzed using the Chou-Talalay method. […] P-value <0.05 was accepted as statistically significant (*:p<0.05; **:p<0.01; ***:p<0.001). Analyses were performed using the GraphPAd Prism 3.0 software.

caspase 3 [4] = assay: Western blot of caspase 3 activation and PARP cleavage in primary tPTEN−/− tumor cells (KO#732); type: cell-based, murine; conditions: primary KO#732 cells; COMPOUND-JP 5.0, 10.0 μM; PI-103 10.0 μM; rapamycin 10.0 nM; 2.0-18.0 h
Experimental: as §1

KO99L cells [5] = assay: Annexin-V / DAPI apoptosis assay, KO99L cells; type: cell-based, murine; conditions: 20.0 μM
Experimental: Apoptosis assessment was performed by measuring phosphatidyl-serine membrane redistribution via annexin-V-FITC (Invitrogen). Cells (5.0±0.1×10^5 per well; 2.0 mL) were incubated with effectors, and re-suspended in staining solution (110 μL; Annexin-V ( 1/10) and incubated in the dark (15 min, RT). […] Basal apoptosis and necrosis were determined on control untreated cells.

caspase 3 [6] = assay: Western blot of caspase 3 activation and PARP cleavage, KO99L cells; type: cell-based, murine; conditions: 50.0 μM
Experimental: as §1

Bcl2 family members = assay: Western blot of Bcl2 family members, KO99L cells; type: cell-based, murine
Experimental: as §1

KO99L cells [7] = assay: Cell death by flow cytometry after DAPI staining, KO99L cells; type: cell-based, murine; conditions: 50.0 μM
KO99L cells [8] = assay: BrdU incorporation Elisa (proliferation) on KO99L cells; type: cell-based, murine; conditions: 50.0 μM, KO99L cells
Experimental: Two different assays were employed: i) In a 96-well plate format, cells (4.0±0.1×10^4 per well; 100 μL) were incubated with effectors (48 h, 37° C.; n=4 per experiment) and then WST-1 reagent (10 μL; Roche Diagnostics) added to each well of 96-well plates, incubated, and the formazan production was measured at 490 nm; and ii) cells (2.0±0.1×10^4 per well; 100 μL) were incubated with effectors (48 h, 37° C.; n=4 per experiment) and then bromodeoxyuridine reagent (10 μL/well; Roche Diagnostics) was added to each well and incubated (8 h, 37° C.). The cells were then fixed, denatured and incubated with anti-BrdU-conjugated with peroxidase (POD) antibody (100 μL/well). Colorimetric substrate (TMB: tetramethyl-benzidine; 100 μL/well) was added and BrdU incorporation quantified via optical density measurement (450 nm) which corresponds to DNA synthesis and proliferating cells.

[9] = test system: human Peripheral Blood Lymphocytes; assay: Proliferative response of human PBL; type: cell-based; conditions: 1.0 μM, positive inducer of cell death

O=c1[nH]cc(F)c(=O)[nH]1 [5-FU, 5-fluorouracil]
combined effect with COM-JP on tumor growth ([1]; COM-JP and 5-FU in combination): additive
increase of the tumor, single administration ([1]; compared with untreated control group): more significant decrease

[NH2][Pt]([NH2])([Cl])[Cl] [CDDP, cisplatin, reference compound]
efficacy on tumor growth, single administration ([2]; COM-JP i.p. 3.1, 12.5, 50 mg/kg/day 4 weeks, CDDP i.p. 2.5 mg/kg/day day 0, 6, 13): not recognized
efficacy of combination with COM-JP on tumor growth ([2]; Group 8: COM-JP 50 mg/kg/day i.p. plus CDDP 2.5 mg/kg/day): synergistic effect

COc1ccc(-c2ccc3c(N4CCOCC4)nc(N4C[C@@H](C)O[C@@H](C)C4)nc3n2)cc1CO [KU0063794, rel-5-[2-[(2R,6S)-2,6-dimethyl-4-morpholinyl]-4-(4-morpholinyl)pyrido[2,3-d]pyrimidin-7-yl]-2-methoxybenzenemethanol, reference compound]
4EBP1 phosphorylation (mTORC1 / Akt activation): completely block
Akt phosphorylation (serine 473) / activation (mTORC1 / Akt activation): completely block
S6RP phosphorylation (mTORC1 activation) (mTORC1 / Akt activation): completely block
CHOP induction (CHOP; FIG. 5B, COMPOUND-JP 5.0 and 10.0 μM, L-Asp 2.5 units/ml, rapamycin 10.0 nM, MK-2206 10.0 μM, KU0063794 10.0 μM): did not result in CHOP induction
c-myc protein level (c-myc): slightly influenced the two lower bands
combination effect with COMPOUND-JP on metabolic activity/cell survival (Combination Index) (KO99L cells [3]): less efficient

Oc1cccc(-c2nc(N3CCOCC3)c3oc4ncccc4c3n2)c1 [PI103, 3-[4-(4-Morpholinylpyrido[3′,2′:4,5]furo[3,2-d]pyrimidin-2-yl]phenol hydrochloride, reference compound]
caspase 3 processing and PARP cleavage (apoptosis) (caspase 3 [4]): efficient cell death inducer
combination effect with COMPOUND-JP on metabolic activity/cell survival (Combination Index) (KO99L cells [3]): less efficient

CC(C)[C@H](NC(=O)c1ccc2ccccc2n1)C(=O)N[C@@H](CC(=O)O)C(=O)COc1c(F)cccc1F [QvD-OPH, reference compound]
quantity of apoptotic cells when co-administered with COMPOUND-JP (KO99L cells [5]): markedly decreased the quantity of apoptotic cells

O=C(C=Cc1ccccc1)NC(NC(=S)Nc1cccc2cccnc12)C(Cl)(Cl)Cl (stereo not drawn) [salubrinal, N-(2,2,2-trichloro-1-(3-(quinolin-8-yl)thioureido)ethyl)cinnamamide, reference compound]
caspase 3 cleavage in presence of COMPOUND-JP (caspase 3 [6]): decreased caspase 3 cleavage
effect on CHOP induction by COMPOUND-JP (10.0 μM) (CHOP; 50.0 μM): offset CHOP induction
COMPOUND-JP induction of Bax, Bak, PUMA and Bim in presence of salubrinal (Bcl2 family members): sensitive to inhibition of CHOP by salubrinal
cell death induced via COMPOUND-JP (KO99L cells [7]): rescue KO99L cells against cell death
cell proliferation (BrdU incorporation or cell counting) in presence of COMPOUND-JP (KO99L cells [8]): restored cell proliferation

CN[C@@H]1C[C@H]2O[C@@](C)([C@@H]1OC)n1c3ccccc3c3c4c(c5c6ccccc6n2c5c31)C(=O)NC4 [staurosporine, reference compound]
PBL cell proliferation [9]: strongly affected cell proliferation

B1: L-Asp: enzyme that can degrade extracellular asparagine and also possesses glutaminase activity (protein, UniProt P00805 23-348, looked up)
L-asparaginase 2: LPNITILATGGTIAGGGDSATKSNYTVGKVGVENLVNAVPQLKDIANVKGEQVVNIGSQDMNDNVWLTLAKKINTDCDKTDGFVITHGTDTMEETAYFLDLTVKCDKPVVMVGAMRPSTSMSADGPFNLYNAVVTAADKASANRGVLVVMNDTVLDGRDVTKTNTTDVATFKSVNYGPLGYIHNGKIDYQRTPARKHTSDTPFDVSKLNELPKVGIVYNYANASDLPAKALVDAGYDGIVSAGVGNGNLYKSVFDTLATAAKTGTAVVRSSRVPTGATTQDAEVDDAKYGFVASGTLNPQKARVLLQLALTQTKDPQQIQQIFNQY
4EBP1 phosphorylation (mTORC1 / Akt activation): altered 4EBP1 phosphorylation
Akt phosphorylation (serine 473) / activation (mTORC1 / Akt activation): did not significantly influence Akt phosphorylation
S6RP phosphorylation (mTORC1 activation) (mTORC1 / Akt activation): altered S6RP phosphorylation
CHOP expression, time course (CHOP; FIG. 5A, COMPOUND-JP 10.0 μM, L-Asp, Erw 2.5 units/ml, 2.0-24 h): lower magnitude compared to COMPOUND-JP
combination effect with COMPOUND-JP on metabolic activity/cell survival (Combination Index) (KO99L cells [3]): potentiate

Source: patent US10172835B2, “Anticancer agent composition” (J-Pharma Co., Ltd., priority 2014, dated 2019)
